According to patent US20140017701A1, “CHIMERIC PDK1 KINASES” (priority 2011, published 2014):

Experiments:
Format in all cases: biochemical
[1] = target: T1, SGK (Homo sapiens, UniProt O00141, S422D); experiment: Protein kinase activity assay, SGK; details: Table I a; percentage of catalytic activity compared to DMSO; Crosstide substrate
T1 construct: made in house; host or cells: HEK293
T1 sequence (O00141 61-431 S422D limits assumed): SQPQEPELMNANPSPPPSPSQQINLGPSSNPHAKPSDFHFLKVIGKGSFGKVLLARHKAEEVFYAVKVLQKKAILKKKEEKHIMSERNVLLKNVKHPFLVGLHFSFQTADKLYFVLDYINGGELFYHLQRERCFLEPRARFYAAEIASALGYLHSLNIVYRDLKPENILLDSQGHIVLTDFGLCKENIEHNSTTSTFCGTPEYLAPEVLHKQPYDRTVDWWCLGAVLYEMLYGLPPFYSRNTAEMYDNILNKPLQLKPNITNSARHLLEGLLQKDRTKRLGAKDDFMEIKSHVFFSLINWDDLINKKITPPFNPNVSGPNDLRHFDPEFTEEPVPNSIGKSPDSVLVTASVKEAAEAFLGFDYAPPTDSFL
Method: (§1) For the expression and purification of protein kinases fused to GST, pEBG-2T derived plasmids were transfected into 8×14.5 cm dishes containing HEK293 cells using the PEI method ([…] and […]/14.5 cm dish). The cells were lysed after 48 h in a buffer containing 50 mM Tris-HCl pH 7.5, 1 mM EGTA, 1 mM EDTA, 1% (w/v) Triton X-100, 1 mM sodium orthovanadate, […], 5 mM sodium pyrophosphate, 0.27 M sucrose, 0.1% β-mercaptoethanol, and 1 tablet of protease inhibitor cocktail per 50 ml of buffer. Lysates were frozen in liquid nitrogen and kept at −80° C. until required. Purification involved incubation of the cleared lysate with glutathione sepharose, followed by 2 washes with 0.5 M NaCl in lysis buffer, 8 washes with a buffer containing 50 mM Tris-HCl, 0.1 mM EGTA and 0.1% β-mercaptoethanol (buffer A), and a last wash with buffer A supplemented with 0.26 M sucrose. […]
(§2) The protein kinase activity assays were performed essentially as previously described (Engel, M. et al. Embo J 25, 5469-80 (2006)). The assays were done in a 96-well format and 4 μl aliquots spotted on P81 phospho-cellulose papers (Whatman) using epMotion 5070 (Eppendorf), washed in 0.01% phosphoric acid, dried, and then exposed and analyzed using PhosphoImager technology (FLA-9000 Starion, Fujifilm). […]

[2] = target: T2, PKCβ (Homo sapiens, UniProt P05771); experiment: Protein kinase activity assay, PKCβ; details: Table I b; percentage of catalytic activity compared to DMSO; lipid activator mix, histone H1
T2 construct: purchased ProQinase
T2 sequence (P05771 whole entry, species assumed): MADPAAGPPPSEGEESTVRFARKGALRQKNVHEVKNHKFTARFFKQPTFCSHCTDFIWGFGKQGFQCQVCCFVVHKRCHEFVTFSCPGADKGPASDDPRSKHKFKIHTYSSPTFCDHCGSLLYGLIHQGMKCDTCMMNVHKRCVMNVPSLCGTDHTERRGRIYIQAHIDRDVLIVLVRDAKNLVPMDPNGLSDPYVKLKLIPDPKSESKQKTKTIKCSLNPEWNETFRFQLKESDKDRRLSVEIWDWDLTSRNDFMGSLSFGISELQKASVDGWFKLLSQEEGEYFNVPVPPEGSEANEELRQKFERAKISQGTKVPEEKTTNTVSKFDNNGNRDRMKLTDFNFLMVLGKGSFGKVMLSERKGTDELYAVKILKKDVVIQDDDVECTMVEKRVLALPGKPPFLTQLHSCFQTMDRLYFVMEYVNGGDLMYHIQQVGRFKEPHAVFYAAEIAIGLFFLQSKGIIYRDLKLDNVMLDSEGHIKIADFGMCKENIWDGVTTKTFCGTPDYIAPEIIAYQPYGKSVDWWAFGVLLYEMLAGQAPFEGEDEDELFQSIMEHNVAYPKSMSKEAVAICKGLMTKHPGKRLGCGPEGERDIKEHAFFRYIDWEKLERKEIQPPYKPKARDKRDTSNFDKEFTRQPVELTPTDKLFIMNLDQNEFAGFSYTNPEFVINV
Method: (§3) The protein kinase activity assays were performed essentially as previously described (Engel, M. et al. Embo J 25, 5469-80 (2006)). The assays were done in a 96-well format and 4 μl aliquots spotted on P81 phospho-cellulose papers (Whatman) using epMotion 5070 (Eppendorf), washed in 0.01% phosphoric acid, dried, and then exposed and analyzed using PhosphoImager technology (FLA-9000 Starion, Fujifilm). Atypical PKC (aPKC) activity assays were performed in a total volume of 20 μl containing 50 mM Tris-HCl pH 7.5, 0.05 mg/ml BSA, 0.1% (v/v) 2-mercaptoethanol, 10 mM MgCl2, 100 μM [γ^32P]ATP (5-50 cpm/pmol), 0.003% Brij, 30-50 ng of aPKC, and MBP (10 μM) or PSRtide (100 μM) as the substrate. After 15 min pre-incubation, the kinase reaction was started by addition of 6 μl of an ATP-Mg mix. When required, lipid activator (LA) phosphatidylserine (100 ng) or PKC lipid activator mix (1×) was included in the pre-incubation. Low basal activity and consistent activation of 1-592 PKCζ and 498 PKCζ by LA was obtained when the pre-incubation time was started by addition of the whole mix on the enzyme.
(§4) The substrates were T308tide (200 μM) for PDK1, Kemptide (100 μM) for PKA, and Crosstide (100 μM) for SGK, PKB, S6K, and PRK2. The activity assays for PKCα, β, θ, and δ were performed in the presence of PKC lipid activator mix (1×) using 3 μM of histone H1 as substrate. […]

[3] = target: T3, PKCδ (Homo sapiens, UniProt Q05655); experiment: Protein kinase activity assay, PKCδ; details: Table I b; percentage of catalytic activity compared to DMSO; lipid activator mix, histone H1
T3 construct: purchased ProQinase
T3 sequence (Q05655 whole entry): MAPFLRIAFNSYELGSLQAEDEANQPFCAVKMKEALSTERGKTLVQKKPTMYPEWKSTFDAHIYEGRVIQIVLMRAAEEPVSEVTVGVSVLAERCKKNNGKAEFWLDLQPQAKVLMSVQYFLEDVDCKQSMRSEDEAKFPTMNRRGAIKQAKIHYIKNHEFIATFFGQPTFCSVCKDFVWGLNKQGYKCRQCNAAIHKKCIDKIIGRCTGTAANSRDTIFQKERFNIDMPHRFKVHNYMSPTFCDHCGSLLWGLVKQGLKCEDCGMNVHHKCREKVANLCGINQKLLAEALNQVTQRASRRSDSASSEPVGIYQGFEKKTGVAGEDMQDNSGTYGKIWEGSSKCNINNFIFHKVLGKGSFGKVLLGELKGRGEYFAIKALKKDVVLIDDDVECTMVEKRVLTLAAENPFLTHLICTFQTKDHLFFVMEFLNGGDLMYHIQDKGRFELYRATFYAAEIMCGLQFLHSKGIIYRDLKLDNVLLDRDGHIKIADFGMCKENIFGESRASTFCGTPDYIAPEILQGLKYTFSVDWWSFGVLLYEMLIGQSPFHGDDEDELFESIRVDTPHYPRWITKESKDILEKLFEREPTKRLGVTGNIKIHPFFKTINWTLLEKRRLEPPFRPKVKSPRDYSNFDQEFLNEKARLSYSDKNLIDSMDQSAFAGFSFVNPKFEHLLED
Method: as §3, §4

[4] = target: T4, PKCα (Homo sapiens, UniProt P17252); experiment: Protein kinase activity assay, PKCα; details: Table I b; percentage of catalytic activity compared to DMSO; lipid activator mix, histone H1
T4 construct: purchased Millipore
Method: as §3, §4

[5] = target: T5, PRK2 (Homo sapiens, UniProt Q16513); experiment: Protein kinase activity assay, PRK2; details: Table I a; percentage of catalytic activity compared to DMSO; Crosstide substrate
T5 construct: made in house; host or cells: HEK293
T5 sequence (Q16513 whole entry): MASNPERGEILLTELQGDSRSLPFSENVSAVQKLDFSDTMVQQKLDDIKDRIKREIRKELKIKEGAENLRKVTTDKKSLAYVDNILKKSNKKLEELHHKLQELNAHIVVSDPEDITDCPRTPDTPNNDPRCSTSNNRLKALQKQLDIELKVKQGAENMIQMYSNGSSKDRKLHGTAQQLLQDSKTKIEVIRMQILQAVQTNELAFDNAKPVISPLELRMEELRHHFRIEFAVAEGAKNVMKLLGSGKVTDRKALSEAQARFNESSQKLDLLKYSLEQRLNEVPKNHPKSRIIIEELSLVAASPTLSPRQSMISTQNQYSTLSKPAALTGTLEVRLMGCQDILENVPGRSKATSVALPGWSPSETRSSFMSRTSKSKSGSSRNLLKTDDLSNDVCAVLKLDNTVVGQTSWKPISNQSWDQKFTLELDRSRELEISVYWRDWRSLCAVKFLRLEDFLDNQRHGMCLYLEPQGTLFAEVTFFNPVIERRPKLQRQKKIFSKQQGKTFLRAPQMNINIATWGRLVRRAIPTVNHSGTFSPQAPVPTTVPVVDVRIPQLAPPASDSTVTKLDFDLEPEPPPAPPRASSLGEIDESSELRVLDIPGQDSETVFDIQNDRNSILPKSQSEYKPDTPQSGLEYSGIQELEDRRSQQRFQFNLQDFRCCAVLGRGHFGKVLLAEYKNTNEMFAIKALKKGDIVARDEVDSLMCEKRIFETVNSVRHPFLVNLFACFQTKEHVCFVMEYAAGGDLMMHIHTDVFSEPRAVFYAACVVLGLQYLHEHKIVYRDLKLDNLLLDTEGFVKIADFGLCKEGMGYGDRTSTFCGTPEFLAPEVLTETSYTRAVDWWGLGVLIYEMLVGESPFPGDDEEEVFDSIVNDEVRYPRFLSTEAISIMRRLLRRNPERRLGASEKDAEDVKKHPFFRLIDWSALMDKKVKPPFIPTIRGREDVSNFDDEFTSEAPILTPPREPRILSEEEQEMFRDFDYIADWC
Method: as §1, §2

[6] = system: PKA; experiment: Protein kinase activity assay, PKA; details: Table I a; percentage of catalytic activity compared to DMSO; Kemptide substrate
Method: as §3, §4

[7] = target: T6, PKBα [Ser473Asp] (Homo sapiens, UniProt P31749, S473D); experiment: Protein kinase activity assay, PKBα; details: Table I a; percentage of catalytic activity compared to DMSO; Crosstide substrate
T6 construct: made in house; host or cells: HEK293
T6 sequence (P31749 whole entry S473D): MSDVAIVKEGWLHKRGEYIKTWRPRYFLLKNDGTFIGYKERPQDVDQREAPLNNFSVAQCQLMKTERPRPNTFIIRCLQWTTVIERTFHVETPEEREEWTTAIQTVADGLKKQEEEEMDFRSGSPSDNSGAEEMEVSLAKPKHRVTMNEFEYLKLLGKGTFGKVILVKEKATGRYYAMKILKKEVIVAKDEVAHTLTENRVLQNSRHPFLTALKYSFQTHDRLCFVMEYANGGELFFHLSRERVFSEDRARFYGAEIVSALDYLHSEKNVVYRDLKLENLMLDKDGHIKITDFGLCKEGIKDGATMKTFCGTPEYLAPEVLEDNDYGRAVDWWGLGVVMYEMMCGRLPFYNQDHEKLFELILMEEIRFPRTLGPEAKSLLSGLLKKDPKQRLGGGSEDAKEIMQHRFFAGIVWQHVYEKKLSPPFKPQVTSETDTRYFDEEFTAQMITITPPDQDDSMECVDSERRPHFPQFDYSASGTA
Method: as §1, §2

[8] = target: T7, PKCθ (Homo sapiens, UniProt Q04759); experiment: Protein kinase activity assay, PKCθ; details: Table I b; percentage of catalytic activity compared to DMSO; lipid activator mix, histone H1
T7 construct: purchased ProQinase
T7 sequence (Q04759 whole entry): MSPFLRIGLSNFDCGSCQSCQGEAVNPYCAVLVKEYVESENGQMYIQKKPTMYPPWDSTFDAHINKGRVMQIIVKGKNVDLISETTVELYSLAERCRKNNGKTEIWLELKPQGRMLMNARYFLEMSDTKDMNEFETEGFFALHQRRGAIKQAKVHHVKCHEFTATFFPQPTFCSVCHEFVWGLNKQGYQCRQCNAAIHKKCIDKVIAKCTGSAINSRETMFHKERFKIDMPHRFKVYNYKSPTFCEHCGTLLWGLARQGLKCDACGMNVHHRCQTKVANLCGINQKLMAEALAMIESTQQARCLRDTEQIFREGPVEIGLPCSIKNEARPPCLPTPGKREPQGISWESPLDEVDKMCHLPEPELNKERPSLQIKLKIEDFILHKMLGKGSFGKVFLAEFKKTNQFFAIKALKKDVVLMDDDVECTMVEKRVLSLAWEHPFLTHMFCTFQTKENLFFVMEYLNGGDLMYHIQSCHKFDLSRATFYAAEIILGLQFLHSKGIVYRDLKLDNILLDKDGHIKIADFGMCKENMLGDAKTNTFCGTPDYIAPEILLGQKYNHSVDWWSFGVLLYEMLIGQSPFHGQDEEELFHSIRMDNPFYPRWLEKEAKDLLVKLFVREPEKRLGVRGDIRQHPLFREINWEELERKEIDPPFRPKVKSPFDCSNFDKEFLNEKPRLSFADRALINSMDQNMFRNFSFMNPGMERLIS
Method: as §3, §4

| Compound | Activity (%) SGK [1] | Activity (%) Classical PKCs PKCβ [2] | Activity (%) Novel PKCs PKCδ [3] | Activity (%) Classical PKCs PKCα [4] | Activity (%) PRK2 [5] | Activity (%) PKA [6] | Activity (%) PKBα [7] | Activity (%) Novel PKCs PKCθ [8] |
| --- | --- | --- | --- | --- | --- | --- | --- | --- |
| Cl.O=C(O)CC(Cc1nc2cc(-c3ccccc3)ccc2[nH]1)c1ccc(Cl)cc1 (stereo not shown) [PS168] | 93% | 148% | 148% | 154% | 103% | 70% | 87% | 130% |
| Cl.O=C(O)CC(Cc1nc2c(Cl)cc(Cl)cc2[nH]1)c1ccc(Cl)cc1 (stereo not shown) [PS171] | 97% | 138% | 170% | 145% | 97% | 91% | 94% | 118% |
